Each structure is given as a SMILES string.

For the test, the target named is T1, voltage-dependent T-type calcium channel subunit alpha-1G (Cav3.2) (Homo sapiens, UniProt O95180).
T1 construct: expressed in transfected cells; host or cells: HEK293
T1 sequence (O95180 whole entry): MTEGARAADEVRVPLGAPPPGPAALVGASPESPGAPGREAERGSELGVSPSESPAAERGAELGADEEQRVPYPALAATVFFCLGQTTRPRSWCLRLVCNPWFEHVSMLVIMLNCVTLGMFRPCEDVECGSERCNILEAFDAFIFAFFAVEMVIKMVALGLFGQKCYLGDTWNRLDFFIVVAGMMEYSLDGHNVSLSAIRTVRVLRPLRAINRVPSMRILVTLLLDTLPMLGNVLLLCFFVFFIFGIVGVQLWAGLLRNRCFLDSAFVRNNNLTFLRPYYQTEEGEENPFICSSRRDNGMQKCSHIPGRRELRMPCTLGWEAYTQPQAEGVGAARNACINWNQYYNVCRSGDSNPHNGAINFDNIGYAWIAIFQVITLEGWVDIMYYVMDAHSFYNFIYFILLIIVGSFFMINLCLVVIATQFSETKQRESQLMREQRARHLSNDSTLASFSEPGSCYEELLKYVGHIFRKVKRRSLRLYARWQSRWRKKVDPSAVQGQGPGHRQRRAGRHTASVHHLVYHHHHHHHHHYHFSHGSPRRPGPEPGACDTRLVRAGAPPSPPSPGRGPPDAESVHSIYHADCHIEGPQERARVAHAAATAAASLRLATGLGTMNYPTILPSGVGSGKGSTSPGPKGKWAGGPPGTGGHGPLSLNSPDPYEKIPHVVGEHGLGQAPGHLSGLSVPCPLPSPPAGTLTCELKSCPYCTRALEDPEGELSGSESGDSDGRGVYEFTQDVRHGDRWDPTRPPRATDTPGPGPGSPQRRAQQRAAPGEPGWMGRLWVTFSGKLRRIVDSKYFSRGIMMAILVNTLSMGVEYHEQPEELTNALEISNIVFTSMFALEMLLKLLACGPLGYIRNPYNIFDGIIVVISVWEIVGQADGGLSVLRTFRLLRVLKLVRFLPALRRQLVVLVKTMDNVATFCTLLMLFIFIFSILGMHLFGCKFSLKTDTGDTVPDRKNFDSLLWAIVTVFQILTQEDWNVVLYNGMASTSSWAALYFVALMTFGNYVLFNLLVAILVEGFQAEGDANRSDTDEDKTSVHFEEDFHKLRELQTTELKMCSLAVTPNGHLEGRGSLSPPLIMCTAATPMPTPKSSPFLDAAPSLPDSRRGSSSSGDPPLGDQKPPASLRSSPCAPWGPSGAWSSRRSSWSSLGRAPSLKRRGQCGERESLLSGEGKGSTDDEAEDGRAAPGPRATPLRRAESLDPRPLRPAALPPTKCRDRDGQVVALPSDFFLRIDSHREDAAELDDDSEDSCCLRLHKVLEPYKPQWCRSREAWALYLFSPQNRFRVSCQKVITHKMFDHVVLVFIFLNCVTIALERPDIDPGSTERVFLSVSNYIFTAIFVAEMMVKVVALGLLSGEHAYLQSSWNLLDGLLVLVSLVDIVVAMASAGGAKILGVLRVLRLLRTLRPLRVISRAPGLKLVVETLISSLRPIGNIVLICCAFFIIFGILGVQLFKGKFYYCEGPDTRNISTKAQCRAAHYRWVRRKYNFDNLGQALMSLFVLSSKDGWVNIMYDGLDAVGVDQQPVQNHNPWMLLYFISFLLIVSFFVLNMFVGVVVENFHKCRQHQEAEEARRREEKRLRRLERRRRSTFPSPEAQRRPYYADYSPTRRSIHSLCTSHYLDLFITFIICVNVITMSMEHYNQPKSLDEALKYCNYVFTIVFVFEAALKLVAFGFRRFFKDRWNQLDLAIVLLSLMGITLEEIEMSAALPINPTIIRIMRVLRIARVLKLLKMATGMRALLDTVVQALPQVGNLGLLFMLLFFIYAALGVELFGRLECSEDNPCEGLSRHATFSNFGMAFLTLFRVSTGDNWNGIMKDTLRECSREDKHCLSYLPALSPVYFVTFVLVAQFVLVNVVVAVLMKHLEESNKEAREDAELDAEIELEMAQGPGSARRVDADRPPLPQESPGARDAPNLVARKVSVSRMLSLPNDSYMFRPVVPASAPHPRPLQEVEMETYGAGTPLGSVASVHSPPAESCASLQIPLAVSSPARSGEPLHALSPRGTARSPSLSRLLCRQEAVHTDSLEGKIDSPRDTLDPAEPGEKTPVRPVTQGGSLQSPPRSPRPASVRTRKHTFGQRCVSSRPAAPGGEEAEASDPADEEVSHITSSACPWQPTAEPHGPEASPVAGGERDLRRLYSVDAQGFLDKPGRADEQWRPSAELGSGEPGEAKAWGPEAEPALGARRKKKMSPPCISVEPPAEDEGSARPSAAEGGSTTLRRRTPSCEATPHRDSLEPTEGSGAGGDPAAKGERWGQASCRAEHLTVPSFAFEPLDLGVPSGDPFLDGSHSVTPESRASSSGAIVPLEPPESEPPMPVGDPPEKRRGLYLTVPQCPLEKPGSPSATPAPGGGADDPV
Nature of the test: FLIPR calcium flux assay, HEK293 cells recombinantly expressing Cav3.2. The class given is cell-based. Conditions: Cav3.2-channel, Fluo-4-AM, 3 min incubation, stimulation with 10 mM CaCl2. The method, boiled down:
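HEK293 cells stably expressing human Cav3.2 were loaded with Fluo-4-AM. Compounds diluted in TEAC buffer (pH 7.2) were preincubated for 3 min, then Ca2+ entry was triggered by 10 mM final CaCl2. Inhibition curves were fitted sigmoidally to the area under the fluorescence trace.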
Background: Calcium assays in cells follow changes in intracellular calcium, usually with a dye or a luminescent sensor.
As for `COc1ccc(Cn2ccc(NC(=O)Cc3ccc(N4CC[C@H](F)C4)nc3)n2)cc1` [Example 156, 2-[6-((S)-3-Fluoro-pyrrolidin-1-yl)-pyridin-3-yl]-N-[1-(4-methoxy-benzyl)-1H-pyrazol-3-yl]-acetamide], the IC50 (usually the midpoint of a concentration-inhibition curve) was 179 nM.

For the compound `CC(C)c1ccc(CC(=O)Nc2ccn(Cc3cc(Cl)c(C#N)cn3)n2)cc1` [Example 157, N-[1-(4-Chloro-5-cyano-pyridin-2-ylmethyl)-1H-pyrazol-3-yl]-2-(4-isopropyl-phenyl)-acetamide], the IC50 amounted to 34 nM.

Turning to `O=C(Cc1ccc(CC2CC2)cc1)Nc1ccn(Cc2ccc(F)cc2)n1` [Example 158, 2-(4-Cyclopropylmethyl-phenyl)-N-[1-(4-fluoro-benzyl)-1H-pyrazol-3-yl]-acetamide], the IC50 worked out at 11 nM.

`N#Cc1ccc(Cn2ccc(NC(=O)Cc3ccc(N4CC(F)C4)nc3)n2)nc1` [Example 159, N-[1-(5-Cyano-pyridin-2-ylmethyl)-1H-pyrazol-3-yl]-2-[6-(3-fluoro-azetidin-1-yl)-pyridin-3-yl]-acetamide]: the IC50 came to 1180 nM.

Take `O=C(Cc1ccc(N2CC(F)C2)nc1)Nc1ccn(Cc2ccc(F)c(F)c2)n1` [Example 160, N-[1-(3,4-Difluoro-benzyl)-1H-pyrazol-3-yl]-2-[6-(3-fluoro-azetidin-1-yl)-pyridin-3-yl]-acetamide]: the IC50 came out at 29 nM.

Turning to `N#Cc1ccc(Cn2ccc(NC(=O)Cc3ccc(N4CC(F)C4)nc3)n2)cc1` [Example 161, N-[1-(4-Cyano-benzyl)-1H-pyrazol-3-yl]-2-[6-(3-fluoro-azetidin-1-yl)-pyridin-3-yl]-acetamide], the IC50 amounted to 258 nM.

Regarding `O=C(Cc1ccc(N2CC(F)C2)nc1)Nc1ccn(Cc2ccc(F)cc2)n1` [Example 162, 2-[6-(3-Fluoro-azetidin-1-yl)-pyridin-3-yl]-N-[1-(4-fluoro-benzyl)-1H-pyrazol-3-yl]-acetamide], the IC50 is 64 nM.

In the case of `COc1ccc(Cn2ccc(NC(=O)Cc3ccc(N4CC(F)C4)nc3)n2)cc1` [Example 163, 2-[6-(3-Fluoro-azetidin-1-yl)-pyridin-3-yl]-N-[1-(4-methoxy-benzyl)-1H-pyrazol-3-yl]-acetamide], the IC50 stood at 345 nM.

Consider `CN(c1ccc(CC(=O)Nc2ccn(Cc3ccc(C#N)cn3)n2)cn1)C1CC1` [Example 164, N-[1-(5-Cyano-pyridin-2-ylmethyl)-1H-pyrazol-3-yl]-2-[6-(cyclopropyl(methyl)amino)-pyridin-3-yl]-acetamide], for which the IC50 stood at 568 nM.

Turning to `CN(c1ccc(CC(=O)Nc2ccn(Cc3ccc(F)c(F)c3)n2)cn1)C1CC1` [Example 165, 2-[6-(Cyclopropyl(methyl)amino)-pyridin-3-yl]-N-[1-(3,4-difluoro-benzyl)-1H-pyrazol-3-yl]-acetamide], the IC50 amounted to 13 nM.

With `CN(c1ccc(CC(=O)Nc2ccn(Cc3ccc(C#N)cc3)n2)cn1)C1CC1` [Example 166, N-[1-(4-Cyano-benzyl)-1H-pyrazol-3-yl]-2-[6-(cyclopropyl(methyl)amino)-pyridin-3-yl]-acetamide], the IC50 stood at 86 nM.

As to `CN(c1ccc(CC(=O)Nc2ccn(Cc3ccc(F)cc3)n2)cn1)C1CC1` [Example 167, 2-[6-(Cyclopropyl(methyl)amino)-pyridin-3-yl]-N-[1-(4-fluoro-benzyl)-1H-pyrazol-3-yl]-acetamide], the IC50 is 21 nM.

As to `COc1ccc(Cn2ccc(NC(=O)Cc3ccc(N(C)C4CC4)nc3)n2)cc1` [Example 168, 2-[6-(Cyclopropyl(methyl)amino)-pyridin-3-yl]-N-[1-(4-methoxy-benzyl)-1H-pyrazol-3-yl]-acetamide], the IC50 amounted to 113 nM.

In the case of `Cc1cc(Cn2ccc(NC(=O)Cc3ccc(C(C)C)cc3)n2)ncc1C#N` [Example 169, N-[1-(5-Cyano-4-methyl-pyridin-2-ylmethyl)-1H-pyrazol-3-yl]-2-(4-isopropyl-phenyl)-acetamide], the IC50 is 104 nM.

Regarding `CC(C)c1ccc(CC(=O)Nc2ccn(Cc3cc(C4CC4)c(C#N)cn3)n2)cc1` [Example 170, N-[1-(5-Cyano-4-cyclopropyl-pyridin-2-ylmethyl)-1H-pyrazol-3-yl]-2-(4-isopropyl-phenyl)-acetamide], the IC50 was found to be 191 nM.

In the case of `CCN(C)c1ccc(CC(=O)Nc2ccn(Cc3ccc(C#N)cn3)n2)cn1` [Example 171, N-[1-(5-Cyano-pyridin-2-ylmethyl)-1H-pyrazol-3-yl]-2-[6-(ethyl-methyl-amino)-pyridin-3-yl]-acetamide], the IC50 turned out to be 980 nM.

Regarding `CCN(C)c1ccc(CC(=O)Nc2ccn(Cc3ccc(F)c(F)c3)n2)cn1` [Example 172, N-[1-(3,4-Difluoro-benzyl)-1H-pyrazol-3-yl]-2-[6-(ethyl-methyl-amino)-pyridin-3-yl]-acetamide], the IC50 came out at 15 nM.

`CCN(C)c1ccc(CC(=O)Nc2ccn(Cc3ccc(C#N)cc3)n2)cn1` [Example 173, N-[1-(4-Cyano-benzyl)-1H-pyrazol-3-yl]-2-[6-(ethyl-methyl-amino)-pyridin-3-yl]-acetamide]: the half-maximal inhibitory concentration (IC50) is 188 nM.

For the compound `CCN(C)c1ccc(CC(=O)Nc2ccn(Cc3ccc(OC)cc3)n2)cn1` [Example 174, 2-[6-(Ethyl-methyl-amino)-pyridin-3-yl]-N-[1-(4-methoxy-benzyl)-1H-pyrazol-3-yl]-acetamide], the IC50 came to 319 nM.

Regarding `O=C(Cc1ccc(N2CCCC2)nc1)Nc1ccn(Cc2ccc(F)c(F)c2)n1` [Example 175, N-[1-(3,4-Difluoro-benzyl)-1H-pyrazol-3-yl]-2-(6-pyrrolidin-1-yl-pyridin-3-yl)-acetamide], the IC50 turned out to be 17 nM.

Regarding `N#Cc1ccc(Cn2ccc(NC(=O)Cc3ccc(N4CCCC4)nc3)n2)cc1` [Example 176, N-[1-(4-Cyano-benzyl)-1H-pyrazol-3-yl]-2-(6-pyrrolidin-1-yl-pyridin-3-yl)-acetamide], the IC50 amounted to 67 nM.

Regarding `O=C(Cc1ccc(N2CCCC2)nc1)Nc1ccn(Cc2ccc(F)cc2)n1` [Example 177, N-[1-(4-Fluoro-benzyl)-1H-pyrazol-3-yl]-2-(6-pyrrolidin-1-yl-pyridin-3-yl)-acetamide], the IC50 worked out at 18 nM.

`COc1ccc(Cn2ccc(NC(=O)Cc3ccc(N4CCCC4)nc3)n2)cc1` [Example 178, N-[1-(4-Methoxy-benzyl)-1H-pyrazol-3-yl]-2-(6-pyrrolidin-1-yl-pyridin-3-yl)-acetamide]: the IC50 worked out at 99 nM.

For the compound `COCCN(C)c1ccc(CC(=O)Nc2ccn(Cc3ccc(C#N)cn3)n2)cn1` [Example 179, N-[1-(5-Cyano-pyridin-2-ylmethyl)-1H-pyrazol-3-yl]-2-{6-[(2-methoxy-ethyl)-methyl-amino]-pyridin-3-yl}-acetamide], the IC50 was 2500 nM.

`COCCN(C)c1ccc(CC(=O)Nc2ccn(Cc3ccc(F)c(F)c3)n2)cn1` [Example 180, N-[1-(3,4-Difluoro-benzyl)-1H-pyrazol-3-yl]-2-{6-[(2-methoxy-ethyl)-methyl-amino]-pyridin-3-yl}-acetamide]: the IC50 was 33 nM.

For the compound `COCCN(C)c1ccc(CC(=O)Nc2ccn(Cc3ccc(C#N)cc3)n2)cn1` [Example 181, N-[1-(4-Cyano-benzyl)-1H-pyrazol-3-yl]-2-{6-[(2-methoxy-ethyl)-methyl-amino]-pyridin-3-yl}-acetamide], the IC50 was 272 nM.

In the case of `COCCN(C)c1ccc(CC(=O)Nc2ccn(Cc3ccc(F)cc3)n2)cn1` [Example 182, N-[1-(4-Fluoro-benzyl)-1H-pyrazol-3-yl]-2-{6-[(2-methoxy-ethyl)-methyl-amino]-pyridin-3-yl}-acetamide], the IC50 amounted to 65 nM.

In the case of `COCCN(C)c1ccc(CC(=O)Nc2ccn(Cc3ccc(OC)cc3)n2)cn1` [Example 183, N-[1-(4-Methoxy-benzyl)-1H-pyrazol-3-yl]-2-{6-[(2-methoxy-ethyl)-methyl-amino]-pyridin-3-yl}-acetamide], the IC50 stood at 530 nM.

Consider `CN(CC1CC1)c1ccc(CC(=O)Nc2ccn(Cc3ccc(C#N)cn3)n2)cn1` [Example 184, N-[1-(5-Cyano-pyridin-2-ylmethyl)-1H-pyrazol-3-yl]-2-[6-(cyclopropylmethyl-methyl-amino)-pyridin-3-yl]-acetamide], for which the IC50 was determined as 490 nM.

Turning to `CN(CC1CC1)c1ccc(CC(=O)Nc2ccn(Cc3ccc(F)c(F)c3)n2)cn1` [Example 185, 2-[6-(Cyclopropylmethyl-methyl-amino)-pyridin-3-yl]-N-[1-(3,4-difluoro-benzyl)-1H-pyrazol-3-yl]-acetamide], the IC50 was 7.7 nM.

As to `CN(CC1CC1)c1ccc(CC(=O)Nc2ccn(Cc3ccc(C#N)cc3)n2)cn1` [Example 186, N-[1-(4-Cyano-benzyl)-1H-pyrazol-3-yl]-2-[6-(cyclopropylmethyl-methyl-amino)-pyridin-3-yl]-acetamide], the IC50 turned out to be 41 nM.

Consider `CN(CC1CC1)c1ccc(CC(=O)Nc2ccn(Cc3ccc(F)cc3)n2)cn1` [Example 187, 2-[6-(Cyclopropylmethyl-methyl-amino)-pyridin-3-yl]-N-[1-(4-fluoro-benzyl)-1H-pyrazol-3-yl]-acetamide], for which the IC50 stood at 15 nM.

Regarding `COc1ccc(Cn2ccc(NC(=O)Cc3ccc(N(C)CC4CC4)nc3)n2)cc1` [Example 188, 2-[6-(Cyclopropylmethyl-methyl-amino)-pyridin-3-yl]-N-[1-(4-methoxy-benzyl)-1H-pyrazol-3-yl]-acetamide], the IC50 came to 60 nM.

On to `CCN(CC)c1ccc(CC(=O)Nc2ccn(Cc3ccc(C#N)cc3)n2)cn1` [Example 189, N-[1-(4-Cyano-benzyl)-1H-pyrazol-3-yl]-2-(6-diethylamino-pyridin-3-yl)-acetamide], for which the IC50 amounted to 88 nM.

Regarding `CCN(CC)c1ccc(CC(=O)Nc2ccn(Cc3ccc(F)cc3)n2)cn1` [Example 190, 2-(6-Diethylamino-pyridin-3-yl)-N-[1-(4-fluoro-benzyl)-1H-pyrazol-3-yl]-acetamide], the IC50 came to 21 nM.

Take `CCN(CC)c1ccc(CC(=O)Nc2ccn(Cc3ccc(OC)cc3)n2)cn1` [Example 191, 2-(6-Diethylamino-pyridin-3-yl)-N-[1-(4-methoxy-benzyl)-1H-pyrazol-3-yl]-acetamide]: the IC50 was 93 nM.

The values are drawn from patent US9932314B2, “Pyrazole compounds and their use as T-type calcium channel blockers” (IDORSIA PHARMACEUTICALS LTD, priority 2015, dated 2018).
